Laboratory results reported in publication PMC11053447, “Human ABC and SLC Transporters: The Culprit Responsible for Unspecific PSMA-617 Uptake?” (Pharmaceuticals, 2024).

Columns and labels:
[1] = target: T1, human MATE1 (Homo sapiens, UniProt Q96FL8); experiment: SLC transporter substrate assay, MDCKII-MATE1-Fin vs control MDCKII-CAT-Fin cells
T1 sequence (Q96FL8 1-570): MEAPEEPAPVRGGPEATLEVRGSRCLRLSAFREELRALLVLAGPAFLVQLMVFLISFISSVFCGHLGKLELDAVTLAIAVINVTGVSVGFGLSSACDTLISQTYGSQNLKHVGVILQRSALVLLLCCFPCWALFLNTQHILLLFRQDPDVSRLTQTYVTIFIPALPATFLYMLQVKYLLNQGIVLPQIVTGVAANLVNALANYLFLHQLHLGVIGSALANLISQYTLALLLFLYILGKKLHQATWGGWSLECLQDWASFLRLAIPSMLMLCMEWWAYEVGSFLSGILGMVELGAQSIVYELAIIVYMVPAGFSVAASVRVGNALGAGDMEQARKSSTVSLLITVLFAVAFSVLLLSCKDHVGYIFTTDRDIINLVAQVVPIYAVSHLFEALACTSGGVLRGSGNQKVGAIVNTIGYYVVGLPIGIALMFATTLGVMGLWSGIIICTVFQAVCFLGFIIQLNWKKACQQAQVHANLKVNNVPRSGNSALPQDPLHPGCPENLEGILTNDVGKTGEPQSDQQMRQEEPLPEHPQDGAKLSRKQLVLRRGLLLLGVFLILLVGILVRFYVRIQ
Protocol: The described cells were plated onto standard 24-well tissue culture plates at densities of 5 × 10^5 cells/well. […] Before starting the experiment, the cells were prepared by removing the medium and washing the cells twice with 300 µL of assay buffer. […] The cells were lysed by adding 300 µL of 0.1N NaOH, they were incubated for 10 min at 37 °C and 100 µL samples were taken from all the wells.
The amount of protein in each well was quantified using the BCA kit for protein determination (Sigma-Aldrich, St Louis, MO, USA). Positive controls were performed using a separate 96-well plate format according to Table S8 in SI4.
(§1) SI4. Results of transporter substrate assays (SLC)
Table S8: Parameters of positive controls, control cell lines and plating for SLC transporters assays.
KH: Krebs-Henseleit buffer, HBSS: Hank's balanced salt solution, MES: 2 -(N-morpholino) ethanesulfonic acid, cGMP:
Guanosine cyclic phosphate, E3S: Estrone -3-sulfate, Gly-Sar: Glycylsarcosine, MPP+: 1-methyl-4-phenylpyridinium.
Calculation of fold accumulation values for SLC transporter substrate assays The fold accumulation value was defined as the ratio of uptake of the test substance (TS) or probe substrate into transfected and control cells. If the fold accumulation is > 2 and can be inhibited by a known inhibitor of the transporter, the test substance can be considered as a substrate of the respective transporter.
(§2) Fold accumulation = UPTTRP
• UPTTRP: accumulated amount of test substance (TS) or probe substrate in transfected cells normalized by protein content […]
• UPTCTRL: accumulated amount of test substance (TS) or probe substrate in control cells normalized by protein content […]
4.1 Multidrug and toxin extrusion protein MATE1
(MDCKII-MATE1-Fin) and control cells (MDCKII-CAT-Fin) applying 2- and 20-minute incubation periods, measured in SLC transporter substrate assay. […] Concentrations are nominal. […]
control cells (MDCKII-CAT-Fin) applying 2- and 20-minute incubation periods, measured in SLC transporter substrate […]
Compound Nominal In MATE1 Fold

[2] = target: T2, human OAT2v1 (Homo sapiens, UniProt Q9Y694); experiment: SLC transporter substrate assay, HEK293-OAT2v1-LV vs control HEK293-Mock-LV cells; type: in vitro ADME; conditions: 20 min
T2 construct: host or cells: HEK293-OAT2v1-LV
T2 sequence (Q9Y694 1-546 isoform Q9Y694-2): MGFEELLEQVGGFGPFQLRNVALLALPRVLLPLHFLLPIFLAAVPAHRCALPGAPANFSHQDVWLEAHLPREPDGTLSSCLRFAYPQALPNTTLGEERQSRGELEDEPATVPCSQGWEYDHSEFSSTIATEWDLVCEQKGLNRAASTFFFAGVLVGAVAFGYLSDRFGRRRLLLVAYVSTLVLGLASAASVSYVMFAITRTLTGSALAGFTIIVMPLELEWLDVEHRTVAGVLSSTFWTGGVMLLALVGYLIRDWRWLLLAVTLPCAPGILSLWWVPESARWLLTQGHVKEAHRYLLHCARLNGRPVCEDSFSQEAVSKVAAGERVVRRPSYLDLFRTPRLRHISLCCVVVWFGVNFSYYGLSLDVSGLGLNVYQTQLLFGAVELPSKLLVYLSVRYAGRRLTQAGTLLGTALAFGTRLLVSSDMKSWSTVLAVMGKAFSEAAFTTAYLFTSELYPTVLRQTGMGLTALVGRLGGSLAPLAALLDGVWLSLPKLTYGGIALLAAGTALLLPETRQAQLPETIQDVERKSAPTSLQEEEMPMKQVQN
Protocol: as §1
Human Incubation Positive control substrate/ Control Special Incubation Assay […]
(Cell line) at 37°C [min] [h]
OAT2v1 cGMP (1.5) / Mock-B- Poly-D-lysine
as §2
PSMA-617 in SLC transporters.
NA: not analyzed. Test substances were considered as substrates in case of fold accumulation values > 2 combined with inhibition values higher than 50%.
4.4 Organic anion transporter OAT2v1 […]
expressed as mean (n=3) ± SD. Concentrations are nominal.
Table S13: ([α,β-3H]Nal)Lu-PSMA-617-accumulation in OAT2v1 transporter expressing (HEK293-OAT2v1-LV) and […]
Conditions Accumulation (pmol/mg protein)
Compound Nominal In OAT2v1 Fold concentration Minutes transporter In control Active accumulation
[µM] expressing cells transport
Positive control (accumulation in cpm)

[3] = 0.03 µM nominal + Indomethacin 300 µM
[4] = 0.30 µM nominal + Indomethacin 300 µM

SMILES: [3H]C(c1ccc2ccccc2c1)C([3H])(NC(=O)C1CCC(CNC(=O)CN2CCN(CC(=O)[O-])CCN(CC(=O)[O-])CCN(CC(=O)[O-])CC2)CC1)C(=O)NCCCCC(NC(=O)NC(CCC(=O)O)C(=O)O)C(=O)O.[Lu+3] (stereo not drawn) [([α,β-^3H]Nal)Lu-PSMA-617]
- Accumulation in MATE1 transporter expressing cells ([1]; 0.03 µM nominal, 2 min): 0.07 ± 0.01 pmol/mg protein
- Accumulation in control cells ([1]; 0.03 µM nominal, 2 min): 0.12 ± 0.01 pmol/mg protein
- Accumulation, active transport ([1]; 0.03 µM nominal, 2 min): -0.05 ± 0.02 pmol/mg protein
- Fold accumulation ([1]; 0.03 µM nominal, 2 min): 0.60
- Accumulation in MATE1 transporter expressing cells ([1]; 0.03 µM nominal, 20 min): 0.09 ± 0.00 pmol/mg protein
- Accumulation in control cells ([1]; 0.03 µM nominal, 20 min): 0.19 ± 0.02 pmol/mg protein
- Accumulation, active transport ([1]; 0.03 µM nominal, 20 min): -0.10 ± 0.02 pmol/mg protein
- Fold accumulation ([1]; 0.03 µM nominal, 20 min): 0.49
- Accumulation in MATE1 transporter expressing cells ([1]; 0.30 µM nominal, 2 min): 0.67 ± 0.05 pmol/mg protein
- Accumulation in control cells ([1]; 0.30 µM nominal, 2 min): 0.82 ± 0.11 pmol/mg protein
- Accumulation, active transport ([1]; 0.30 µM nominal, 2 min): -0.15 ± 0.12 pmol/mg protein
- Fold accumulation ([1]; 0.30 µM nominal, 2 min): 0.81
- Accumulation in MATE1 transporter expressing cells ([1]; 0.30 µM nominal, 20 min): 0.77 ± 0.12 pmol/mg protein
- Accumulation in control cells ([1]; 0.30 µM nominal, 20 min): 1.02 ± 0.12 pmol/mg protein
- Accumulation, active transport ([1]; 0.30 µM nominal, 20 min): -0.26 ± 0.17 pmol/mg protein
- Fold accumulation ([1]; 0.30 µM nominal, 20 min): 0.75
- Substrate assessment (MATE1) ([1]; 0.03, 0.30 µM, 2, 20 min): no in vitro substrate
- Max. transporter-specific fold accumulation, without inhibitor ([1]; 2 min, 0.3 µM): 0.81
- Accumulation in OAT2v1 transporter expressing cells [2, 3]: 0.06 ± 0.01 pmol/mg protein
- Accumulation in control cells [2, 3]: 0.04 ± 0.00 pmol/mg protein
- Accumulation, active transport [2, 3]: 0.01 ± 0.01 pmol/mg protein
- Fold accumulation [2, 3]: 1.24
- Accumulation in OAT2v1 transporter expressing cells ([2]; 0.03 µM nominal, no inhibitor): 0.07 ± 0.01 pmol/mg protein
- Accumulation in control cells ([2]; 0.03 µM nominal, no inhibitor): 0.04 ± 0.00 pmol/mg protein
- Accumulation, active transport ([2]; 0.03 µM nominal, no inhibitor): 0.03 ± 0.01 pmol/mg protein
- Fold accumulation ([2]; 0.03 µM nominal, no inhibitor): 1.77
- Accumulation in OAT2v1 transporter expressing cells [2, 4]: 0.66 ± 0.10 pmol/mg protein
- Accumulation in control cells [2, 4]: 0.43 ± 0.03 pmol/mg protein
- Accumulation, active transport [2, 4]: 0.24 ± 0.10 pmol/mg protein
- Fold accumulation [2, 4]: 1.55
- Accumulation in OAT2v1 transporter expressing cells ([2]; 0.30 µM nominal, no inhibitor): 0.66 ± 0.04 pmol/mg protein
- Accumulation in control cells ([2]; 0.30 µM nominal, no inhibitor): 0.36 ± 0.03 pmol/mg protein
- Accumulation, active transport ([2]; 0.30 µM nominal, no inhibitor): 0.30 ± 0.05 pmol/mg protein
- Fold accumulation ([2]; 0.30 µM nominal, no inhibitor): 1.83
- Max. transporter-specific fold accumulation, without inhibitor ([2]; 0.3 µM): 1.83
- Uptake via transporter (OAT2v1) ([2]; absence and presence of indomethacin): not taken up
- Max. transporter-specific fold accumulation, with inhibitor ([2]; Indomethacin, 0.3 µM): 1.55
